Experimental data as given in patent US20130005568A1, “SAFENED HERBICIDAL MIXTURES” (E.I. DU PONT DE NEMOURS AND COMPANY, priority 2011, published 2013).

How the values were obtained:
[1] = tested on: Pioneer 39K40 hybrid maize; assay: Test C: visual plant response rating, postemergence acetohydroxy acid synthase-inhibiting herbicides alone and with Compound 1; format: in vivo, Zea mays L. spp. indentata Sturt.; conditions: greenhouse, two weeks, 0-100 scale
Experimental: (§1) For all of the following biological tests, plant response ratings were based on a 0-100 scale where zero is growth equivalent to that of untreated plants (no plant response) and 100 represents no additional growth occurring after herbicide treatment.
Herbicide mixtures were dissolved/dispersed in a non-phytotoxic liquid carrier and were sprayed postemergence to Pioneer 39K40 hybrid maize (Zea mays L. spp. indentata Sturt.) in the third collar growth stage (extended leaf height was 40-60 cm). Treated plants were grown under greenhouse conditions for two weeks before visual evaluations of plant responses were recorded.

[2] = tested on: spring wheat; assay: Test E: postemergence plant response rating; format: in vivo, Triticum aestivum L.; conditions: spring wheat, postemergence, greenhouse, two weeks, 0-100 scale
Text: as §1
(§2) Herbicide mixtures were formulated, dissolved/dispersed in water containing 0.25% non-ionic surfactant, sprayed postemergence to the crops: winter wheat (Triticum aestivum L.), spring wheat (Triticum aestivum L.), winter barley (Hordeum vulgare L.) and spring barley (Hordeum vulgare L.), and the weeds: blackgrass (Alopecurus myosuroides Huds.), lambsquarters (Chenopodium album L.) and pigweed (Amaranthus retroflexus L.). Treated plants were grown under greenhouse conditions for two weeks before visual evaluations of plant responses were recorded.

[3] = tested on: winter wheat; assay: Test E: postemergence plant response rating; format: in vivo, Triticum aestivum L.; conditions: winter wheat, postemergence, greenhouse, two weeks, 0-100 scale
Text: as §1, §2

[4] = tested on: spring barley; assay: Test E: postemergence plant response rating; format: in vivo, Hordeum vulgare L.; conditions: spring barley, postemergence, greenhouse, two weeks, 0-100 scale
Text: as §1, §2

[5] = tested on: winter barley; assay: Test E: postemergence plant response rating; format: in vivo, Hordeum vulgare L.; conditions: winter barley, postemergence, greenhouse, two weeks, 0-100 scale
Text: as §1, §2

[6] = tested on: blackgrass; assay: Test E: postemergence plant response rating; format: in vivo, Alopecurus myosuroides Huds.; conditions: blackgrass, postemergence, greenhouse, two weeks, 0-100 scale
Text: as §1, §2

[7] = tested on: lambsquarters; assay: Test E: postemergence plant response rating; format: in vivo, Chenopodium album L.; conditions: lambsquarters, postemergence, greenhouse, two weeks, 0-100 scale
Text: as §1, §2

[8] = tested on: pigweed; assay: Test E: postemergence plant response rating; format: in vivo, Amaranthus retroflexus L.; conditions: pigweed, postemergence, greenhouse, two weeks, 0-100 scale
Text: as §1, §2

[9] = tested on: winter wheat; assay: Test F: preemergence plant response rating; format: in vivo, Triticum aestivum L.; conditions: winter wheat, preemergence, greenhouse, three weeks, 0-100 scale
Text: as §1
(§3) Herbicide mixtures were formulated, dissolved/dispersed in water, and sprayed preemergence to the crops: winter wheat (Triticum aestivum L.) and winter barley (Hordeum vulgare L.), and the weed: blackgrass (Alopecurus myosuroides Huds). Treated plants were grown under greenhouse conditions for three weeks before visual evaluations of plant responses were recorded.

[10] = tested on: winter barley; assay: Test F: preemergence plant response rating; format: in vivo, Hordeum vulgare L.; conditions: winter barley, preemergence, greenhouse, three weeks, 0-100 scale
Text: as §1, §3

[11] = tested on: blackgrass; assay: Test F: preemergence plant response rating; format: in vivo, Alopecurus myosuroides Huds; conditions: blackgrass, preemergence, greenhouse, three weeks, 0-100 scale
Text: as §1, §3

[12] = herbicide 10 g ai/ha + Compound 1 125 g ai/ha
[13] = herbicide 20 g ai/ha + Compound 1 125 g ai/ha
[14] = herbicide 32 g ai/ha + Compound 1 125 g ai/ha
[15] = herbicide 64 g ai/ha + Compound 1 125 g ai/ha
[16] = herbicide 17.5 g ai/ha + Compound 1 125 g ai/ha
[17] = herbicide 35 g ai/ha + Compound 1 125 g ai/ha

In the case of `CCOC(=O)c1ccccc1S(=O)(=O)NC(=O)Nc1nc(Cl)cc(OC)n1` [Chlorimuron-ethyl, chlorimuron-ethyl], the “Observed Response, Herbicide mixture with Compound 1” value (“Observed Response, Herbicide mixture” for short) ([1]; herbicide 8 g ai/ha + Compound 1 125 g ai/ha) is reported as 53 and the “Observed Response, Herbicide alone” value ([1]; herbicide 8 g ai/ha) is reported as 96.
`COC(=O)c1ccc(C(F)(F)F)nc1S(=O)(=O)NC(=O)Nc1nc(OC)cc(OC)n1` [Flupyrsulfuron-methyl-sodium, flupyrsulfuron-methyl-sodium] was tested, and the “Observed Response, Herbicide mixture” value [2, 12] was 3, the “Observed Response, Herbicide alone” value ([2]; herbicide 10 g ai/ha) was 18 and the “Observed Response, Herbicide mixture” value [2, 13] was 0. For the same compound, the “Observed Response, Herbicide alone” value ([2]; herbicide 20 g ai/ha) was 22, the “Observed Response, Herbicide mixture” value [3, 12] was 0 and the “Observed Response, Herbicide alone” value ([3]; herbicide 10 g ai/ha) was 17. The “Observed Response, Herbicide mixture” value [3, 13] was 0, the “Observed Response, Herbicide alone” value ([3]; herbicide 20 g ai/ha) was 18 and the “Observed Response, Herbicide mixture” value [4, 12] was 23. The “Observed Response, Herbicide alone” value ([4]; herbicide 10 g ai/ha) was 47, the “Observed Response, Herbicide mixture” value [4, 13] was 43 and the “Observed Response, Herbicide alone” value ([4]; herbicide 20 g ai/ha) was 53. For the same compound, the “Observed Response, Herbicide mixture” value [5, 12] was 12, the “Observed Response, Herbicide alone” value ([5]; herbicide 10 g ai/ha) was 42 and the “Observed Response, Herbicide mixture” value [5, 13] was 27. For the same compound, the “Observed Response, Herbicide alone” value ([5]; herbicide 20 g ai/ha) was 42, the “Observed Response, Herbicide mixture” value [6, 12] was 99 and the “Observed Response, Herbicide alone” value ([6]; herbicide 10 g ai/ha) was 98. The “Observed Response, Herbicide mixture” value [6, 13] was 99, the “Observed Response, Herbicide alone” value ([6]; herbicide 20 g ai/ha) was 99 and the “Observed Response, Herbicide mixture” value [7, 12] was 83. For the same compound, the “Observed Response, Herbicide alone” value ([7]; herbicide 10 g ai/ha) was 78, the “Observed Response, Herbicide mixture” value [7, 13] was 87 and the “Observed Response, Herbicide alone” value ([7]; herbicide 20 g ai/ha) was 87. For the same compound, the “Observed Response, Herbicide mixture” value [8, 12] was 96, the “Observed Response, Herbicide alone” value ([8]; herbicide 10 g ai/ha) was 100 and the “Observed Response, Herbicide mixture” value [8, 13] was 97. For the same compound, the “Observed Response, Herbicide alone” value ([8]; herbicide 20 g ai/ha) was 99, the “Observed Response, Herbicide mixture” value [9, 14] was 10 and the “Observed Response, Herbicide alone” value ([9]; herbicide 32 g ai/ha) was 30. The “Observed Response, Herbicide mixture” value [9, 15] was 33, the “Observed Response, Herbicide alone” value ([9]; herbicide 64 g ai/ha) was 40 and the “Observed Response, Herbicide mixture” value [10, 14] was 40. The “Observed Response, Herbicide alone” value ([10]; herbicide 32 g ai/ha) was 75, the “Observed Response, Herbicide mixture” value [10, 15] was 35 and the “Observed Response, Herbicide alone” value ([10]; herbicide 64 g ai/ha) was 90. For the same compound, the “Observed Response, Herbicide mixture” value [11, 14] was 90, the “Observed Response, Herbicide alone” value ([11]; herbicide 32 g ai/ha) was 95 and the “Observed Response, Herbicide mixture” value [11, 15] was 97. The “Observed Response, Herbicide alone” value ([11]; herbicide 64 g ai/ha) was 95.
In the case of `COC(=O)c1c(Cl)nn(C)c1S(=O)(=O)NC(=O)Nc1nc(OC)cc(OC)n1` [Halosulfuron-methyl, halosulfuron-methyl], the “Observed Response, Herbicide mixture” value [1, 16] is reported as 10 and the “Observed Response, Herbicide alone” value ([1]; herbicide 17.5 g ai/ha) is reported as 37.
With `CC(C)C1(C)N=C(c2nc3ccccc3cc2C(=O)O)NC1=O` (centres unmarked) [Imazaquin, imazaquin] the “Observed Response, Herbicide mixture” value [1, 16] was 100 and the “Observed Response, Herbicide alone” value ([1]; herbicide 17.5 g ai/ha) was 100.
`COC(=O)c1ccc(I)cc1S(=O)(=O)NC(=O)Nc1nc(C)nc(OC)n1` [Iodosulfuron-methyl, iodosulfuron-methyl] was tested, and the “Observed Response, Herbicide mixture” value [1, 16] was 57 and the “Observed Response, Herbicide alone” value ([1]; herbicide 17.5 g ai/ha) was 100.
In the case of `COC(=O)c1ccc(CNS(C)(=O)=O)cc1S(=O)(=O)NC(=O)Nc1nc(OC)cc(OC)n1` [Mesosulfuron-methyl, mesosulfuron-methyl], the “Observed Response, Herbicide mixture” value [1, 16] is reported as 100 and the “Observed Response, Herbicide alone” value ([1]; herbicide 17.5 g ai/ha) is reported as 100.
For `CCCOc1nn(C(=O)[N-]S(=O)(=O)c2ccccc2C(=O)OC)c(=O)n1C.[Na+]` [Propoxycarbazone-sodium, propoxycarbazone], the “Observed Response, Herbicide mixture” value [1, 17] was 100 and the “Observed Response, Herbicide alone” value ([1]; herbicide 35 g ai/ha) was 100.
In the case of `COC(=O)c1cccc(C)c1S(=O)(=O)NC(=O)Nc1nc(OCC(F)(F)F)nc(N(C)C)n1` [Triflusulfuron-methyl, triflusulfuron-methyl], the “Observed Response, Herbicide mixture” value [1, 17] is reported as 100 and the “Observed Response, Herbicide alone” value ([1]; herbicide 35 g ai/ha) is reported as 100.
Imazamethabenz was tested, and the “Observed Response, Herbicide mixture” value [1, 16] was 100 and the “Observed Response, Herbicide alone” value ([1]; herbicide 17.5 g ai/ha) was 100.
